# US12060432B2, “Combination therapies with anti-CD38 antibodies” (Janssen Biotech, Inc., priority 2014, dated 2024)
# Tests used:
# [1] = tested on: SU-DHL-6 cells; assay: SU-DHL-6 cell line based NHL-DLBCL model: daratumumab alone or with CHOP; type: in vivo, NOD SCID mice
# Protocol: 5×10^6 SU-DHL-6 cells were implanted into NOD SCID mice and treatment initiated when the main tumor size reached approximately 154 mm^3. Daratumumab was administered at 10 mg/kg once a week for four weeks. CHOP was administered daily on days 0-5 using following doses: cyclophosphoamide (CTX): 5 mg/kg i.v.; doxorubicin: 0.5 mg/kg i.v; vincristine: 0.08 mg/kg i.v., prednisone: 0.03 mg/kg p.o. Tumor size was plotted as Mean±SEM.
# SU-DHL-6 cell line based NHL-DLBCL model was utilized to study the efficacy of daratumumab alone or in combination with CHOP.
# The SU-DHL-6 cells were maintained separately in vitro in RPMI1640 medium supplemented with 20% fetal bovine serum (v/v) at 37° C. in an atmosphere of 5% CO2 in air. The cells were routinely subcultured twice weekly. The cells growing in an exponential growth phase were harvested and counted for tumor inoculation. NOD SCID mice were γ-irradiated (200 rads) at 24 h before injection. Each mouse was inoculated subcutaneously at the right flank with SU-DHL-6 tumor cells (5×10^6) in 0.1 ml of PBS with matrigel (1:1) for tumor development. The treatments were started when the tumor size reaches approximately 154 mm^3. The date of tumor cell inoculation is denoted as day 0. Tumor sizes were measured twice weekly and % TGI values calculated as described in Example 1.
# Animals were divided in four treatment groups and were administered vehicle, daratumumab, CHOP or daratumumab in combination with CHOP at dosages as described in Table 3.
# [2] = tested on: ST1361 NHL-DLBCL (diffuse large B-cell lymphoma) PDX (patient derived xenograft) model; assay: Patient-derived DLBCL xenograft ST1361: daratumumab alone or with CHOP or R-CHOP; type: in vivo, SCID/Beige mice; settings: for % TGI (percent tumor growth inhibition): up to day 31, versus isotype control
# Protocol: Resected DLBCL tumors were implanted in SCID/Beige mice. […] Daratumumab was administered at 20 mg/kg once a week for three weeks. CHOP and R-CHOP were administered once on day 0 except prednisone was administered on days 0-4 using the following regimens: CHOP: (cyclophosphoamide (CTX): 30 mg/kg i.v.; doxorubicin: 2.5 mg/kg i.v; vincristine: 0.4 mg/kg i.v); prednisone: 0.15 mg/kg p.o; R-CHOP: rituximab 20 mg/kg i.p. DAY 0. Tumor volume was measured every three days. The Y-axis represents tumor volume±SEM.
# ST1361 is a NHL-DLBCL (diffuse large B-cell lymphoma) PDX (patient derived xenograft) model originating from a person chemo-naïve prior to metastatic sample collection.
# Tumors were implanted in immunocompromised mice between 5-8 weeks of age. […] Daratumumab was dosed at 20 mg/kg once a week for 3 weeks. CHOP and R-CHOP at the concentrations described below were dosed once on day 0. CHOP (cyclophosphoamide: 30 mg/kg; doxorubicin: 2.5 mg/kg; vincristine: 0.4 mg/kg)-IV DAY 0; prednisone: 0.15 mg/kg DAYS 0-4; R-CHOP: rituximab 20 mg/kg-IP DAY 0. Beginning Day 0, tumor volume was measured twice weekly by digital caliper and data including individual and mean estimated tumor volumes (Mean TV±SEM) recorded for each group. The study was used to measure tumor growth inhibition until the control group was terminated and then continued as a survival study to evaluate the duration of daratumumab efficacy.
# For the study, beginning Day 0, tumor dimensions were measured twice weekly by digital caliper and data including individual and mean estimated tumor volumes (mean TV±SEM) recorded for each group.
# [3] = tested on: NAMALWA cells; assay: NAMALWA model of Burkitt's lymphoma: daratumumab alone or with CHOP; type: in vivo, NOD SCID mice
# Protocol: 2×10^5 NAMALWA cells in matrigel were implanted into NOD SCID mice and treatment initiated when the main tumor size reached approximately 189 mm^3. Daratumumab was administered at 10 mg/kg once a week for three weeks. CHOP was administered daily on days 0-5 using following doses: cyclophosphoamide (CTX): 5 mg/kg i.v.; doxorubicin: 0.5 mg/kg i.v; vincristine: 0.08 mg/kg i.v., prednisone: 0.03 mg/kg p.o. Tumor volume was measured every three days. The Y-axis represents tumor volume±SEM
# As a model for Burkitt's lymphoma, NAMALWA cells were utilized to study the efficacy of daratumumab alone or in combination with CHOP.
# Namalwa cells were maintained in vitro in RPMI 1640 medium supplemented with fetal bovine serum (10% v/v), and L-glutamine (2 mM) at 37° C. in an atmosphere of 5% CO2 in air. The cells were routinely subcultured twice weekly by trypsin-EDTA treatment. The cells growing in an exponential growth phase were harvested and counted for tumor inoculation. The mice were injected with 2×10^5 Namalwa cells in 0.1 ml of PBS with matrigel (1:1) subcutaneously and the treatments were started when the mean tumor size reached 189 mm^3. The date of tumor cell inoculation is denoted as day 0. The major endpoint was to see if the tumor growth can be delayed or tumor-bearing mice can be cured. Tumor sizes were measured twice weekly and % TGI values calculated as described in Example 1.
# Animals were divided in four treatment groups and were administered vehicle (isotype control), daratumumab, CHOP or daratumumab in combination with CHOP at dosages as described in Table 2.
substance,measurement,setting,value
"Daratumumab: anti-CD38 antibody, IgG1/κ; VH SEQ ID NO: 4, VL SEQ ID NO: 5; heavy chain SEQ ID NO: 12, light chain SEQ ID NO: 13",Tumor growth delay,"[1]; at tumor size of 1,500 mm^3",3 days
same,T/C value,[1]; day 32 post tumor inoculation,45.45%
same,Antitumor activity in tumor size,"[1]; day 32 post tumor inoculation, versus vehicle",significant antitumor activity
same,Mean tumor size,"[1]; day 32 post tumor inoculation, daratumumab 10 mg/kg QW x 4, CHOP QD x 5","1,946 mm^3"
same,Mean tumor volume (mm^3) ± SEM,"[2]; day 31, daratumumab 20 mg/kg once a week for 3 weeks, CHOP/R-CHOP once on day 0, prednisone days 0-4, day 0 volume 145-146 mm^3",744 ± 236 mm^3
same,% TGI (percent tumor growth inhibition),[2],71%
same,% TGI (percent tumor growth inhibition),[2]; listed as daratumumab,~71%
same,Tumor growth delay,"[3]; at tumor size of 2,303 mm^3",2 days
same,T/C value,[3]; day 26 post tumor inoculation,70.46%
same,Antitumor activity in tumor size,"[3]; day 26 post tumor inoculation, versus vehicle",significant antitumor activity
same,Mean tumor size,"[3]; day 26 post tumor inoculation, daratumumab 10 mg/kg QW x 3, CHOP QD x 5","3,017 mm^3"
